According to patent US20140187548A1, “6 SUBSTITUTED IMIDAZOPYRAZINES FOR USE AS MPS-1 AND TKK INHIBITORS IN THE TREATMENT OF HYPERPROLIFERATIVE DISORDERS” (BAYER INTELLECTUAL PROPERTY GMBH, priority 2010, published 2014):

Target: T1, human kinase Mps-1 (Homo sapiens, UniProt P33981)
T1 construct: N-terminally GST-tagged human full length recombinant Mps-1 kinase; GST (N); purchased Invitrogen, Karslruhe, Germany PV4071
T1 sequence (P33981 1-857): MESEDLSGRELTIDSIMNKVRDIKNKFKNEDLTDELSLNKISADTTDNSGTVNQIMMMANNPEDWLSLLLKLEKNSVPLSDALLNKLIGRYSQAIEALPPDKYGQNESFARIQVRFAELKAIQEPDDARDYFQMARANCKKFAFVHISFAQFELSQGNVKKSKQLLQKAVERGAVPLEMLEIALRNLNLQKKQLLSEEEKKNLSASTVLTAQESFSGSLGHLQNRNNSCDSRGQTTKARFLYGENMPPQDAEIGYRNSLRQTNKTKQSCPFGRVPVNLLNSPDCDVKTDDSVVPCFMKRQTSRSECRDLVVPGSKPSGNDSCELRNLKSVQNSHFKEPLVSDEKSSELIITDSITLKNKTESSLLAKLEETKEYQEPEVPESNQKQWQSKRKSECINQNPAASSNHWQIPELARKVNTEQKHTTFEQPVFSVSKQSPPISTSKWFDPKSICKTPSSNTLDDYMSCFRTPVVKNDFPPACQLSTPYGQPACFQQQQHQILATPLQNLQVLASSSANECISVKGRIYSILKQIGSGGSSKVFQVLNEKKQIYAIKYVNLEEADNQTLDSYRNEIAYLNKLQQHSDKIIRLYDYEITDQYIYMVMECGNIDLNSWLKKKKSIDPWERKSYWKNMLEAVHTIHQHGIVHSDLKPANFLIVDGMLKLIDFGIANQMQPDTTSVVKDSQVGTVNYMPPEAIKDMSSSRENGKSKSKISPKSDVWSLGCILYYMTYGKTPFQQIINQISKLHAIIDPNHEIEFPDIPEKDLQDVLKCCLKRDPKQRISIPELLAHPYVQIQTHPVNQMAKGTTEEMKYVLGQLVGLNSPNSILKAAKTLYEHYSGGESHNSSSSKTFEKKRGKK
Assay: Mps-1 kinase assay (TR-FRET)
Assay type: biochemical
Conditions: N-terminally GST-tagged human full length recombinant Mps-1; 10 μM ATP; 1 μM peptide substrate; 15 min pre-incubation; 60 min at 22° C.
Procedure, shortened: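 N-terminally GST-tagged full-length recombinant human Mps-1, about 1 nM final, phosphorylates a biotinylated peptide. Product detected by TR-FRET from Eu-anti-phospho-Ser/Thr antibody to streptavidin-XLent after 1 h at 22° C.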

SMILES | IC50
CC(C)CNc1nc(-c2ccc(S(C)(=O)=O)cc2)cn2c(-c3ccc(C(=O)NC4CC4)cc3)cnc12 [Example 1-75, N-cyclopropyl-4-{8-[(2-methylpropyl)amino]-6-[4-(methylsulfonyl)phenyl]imidazo[1,2-a]pyrazin-3-yl}benzamide] | 2.5 nM
CC(C)CNc1nc(-c2ccc3ncccc3c2)cn2c(-c3ccc(C(=O)NC4CC4)cc3)cnc12 [Example 1-76, N-cyclopropyl-4-{8-[(2-methylpropyl)amino]-6-(quinolin-6-yl)imidazo [1,2-a]pyrazin-3-yl} benzamide] | 3.3 nM
CC(C)CNc1nc(-c2ccccc2CO)cn2c(-c3ccc(C(=O)NC4CC4)cc3)cnc12 [Example 1-77, N-cyclopropyl-4-{6-[2-(hydroxymethyl)phenyl]-8-[(2-methylpropyl)amino]imidazo[1,2-a]pyrazin-3-yl}benzamide] | 1.2 nM
COc1ccc2cc(-c3cn4c(-c5ccc(C(=O)NC6CC6)cc5)cnc4c(NCC(C)C)n3)ccc2c1 [Example 1-79, N-cyclopropyl-4-{6-(6-methoxynaphthalen-2-yl)-8-[(2-methylpropyl)amino]imidazo[1,2-a]pyrazin-3-yl}benzamide] | 32.7 nM
Cc1ccc(-c2cn3c(-c4ccc(C(=O)NC5CC5)cc4)cnc3c(NCC(C)C)n2)cc1Cl [Example 1-80, 4-{6-(3-chloro-4-methyl-phenyl)-8-[(2-methylpropyl)amino]imidazo [1,2-a]pyrazin-3-yl}-N-cyclopropylbenzamide] | 20.7 nM
CC(C)CNc1nc(-c2ccc(OCC(C)C)cc2)cn2c(-c3ccc(C(=O)NC4CC4)cc3)cnc12 [Example 1-81, N-cyclopropyl-4-{6-[4-(2-methylpropoxy)phenyl]-8-[(2-methylpropyl)amino]imidazo[1,2-a]pyrazin-3-yl}benzamide] | 347 nM
CNC(=O)c1ccc(-c2cn3c(-c4ccc(C(=O)NC5CC5)cc4)cnc3c(NCC(C)C)n2)cc1Cl [Example 1-82, 2-chloro-4-{3-[4-(cyclopropylcarbamoyl)phenyl]-8-[(2-methylpropyl)amino]imidazo[1,2-a]pyrazin-6-yl}-N-methyl benzamide] | 1.6 nM
CC(C)CNc1nc(-c2ccc(C(=O)NC3CC3)c(Cl)c2)cn2c(-c3ccc(C(=O)NC4CC4)cc3)cnc12 [Example 1-83, 2-chloro-N-cyclopropyl-4-{3-[4-(cyclopropyl-carbamoyl)phenyl]-8-[(2-methylpropyl)amino]imidazo[1,2-a]pyrazin-6-yl}benzamide] | 6.9 nM
CC(C)CNc1nc(-c2ccc(Cl)c(C(=O)NC3CC3)c2)cn2c(-c3ccc(C(=O)NC4CC4)cc3)cnc12 [Example 1-84, 2-chloro-N-cyclopropyl-5-{3-[4-(cyclopropyl-carbamoyl)phenyl]-8-[(2-methylpropyl)amino]imidazo[1,2-a]pyrazin-6-yl}benzamide] | 4.5 nM
CC(C)CNc1nc(-c2ccc(F)c(C(=O)NC(C)C)c2)cn2c(-c3ccc(C(=O)NC4CC4)cc3)cnc12 [Example 1-85, 5-{3-[4-(cyclopropyl-carbamoyl)phenyl]-8-[(2-methylpropyl)amino]imidazo[1,2-a]pyrazin-6-yl}-2-fluoro-N-(propan-2-yl)benzamide] | 2.6 nM
CC(C)CNc1nc(-c2ccc(C(=O)NC(C)C)c(F)c2)cn2c(-c3ccc(C(=O)NC4CC4)cc3)cnc12 [Example 1-86, 4-{3-[4-(cyclopropyl-carbamoyl)phenyl]-8-[(2-methylpropyl)amino]imidazo[1,2-a]pyrazin-6-yl}-2-fluoro-N-(propan-2-yl)benzamide] | 6.2 nM
CC(C)CNc1nc(-c2ccc(Cl)cc2Cl)cn2c(-c3ccc(C(=O)NC4CC4)cc3)cnc12 [Example 1-87, N-cyclopropyl-4-{6-(2,4-dichlorophenyl)-8-[(2-methylpropyl)amino]imidazo[1,2-a]pyrazin-3-yl}benzamide] | 6.7 nM
Cc1cn2c(-c3ccc(C(=O)NC4CC4)cc3)cnc2c(NCC(C)C)n1 [Example 1-88, N-cyclopropyl-4-{6-methyl-8-[(2-methyl-propyl)amino]imidazo [1,2-a]pyrazin-3-yl} benzamide] | 11.9 nM
CC(C)CNc1nc(-c2ccc(N3CCNCC3)cc2)cn2c(-c3ccc(C(=O)NC4CC4)cc3)cnc12 [Example 1-89, N-cyclopropyl-4-{8-[(2-methylpropyl)amino]-6-[4-(piperazin-1-yl)phenyl]imidazo[1,2-a]pyrazin-3-yl}benzamide] | 2 nM
CC(C)CNc1nc(-c2ccc(N3CCN(C)CC3)cc2)cn2c(-c3ccc(C(=O)NC4CC4)cc3)cnc12 [Example 1-90, N-cyclopropyl-4-{6-[4-(4-methylpiperazin-1-yl)phenyl]-8-[(2-methyl-propyl)amino]imidazo [1,2-a]pyrazin-3-yl} benzamide] | 1.6 nM
CC(C)CNc1nc(-c2ccc(N3CCOCC3)cc2)cn2c(-c3ccc(C(=O)NC4CC4)cc3)cnc12 [Example 1-91, N-cyclopropyl-4-{8-[(2-methylpropyl)amino]-6-[4-(morpholin-4-yl)phenyl]imidazo[1,2-a]pyrazin-3-yl}benzamide] | 1.5 nM
CC(C)CNc1nc(-c2ccc(N(C)C)cc2)cn2c(-c3ccc(C(=O)NC4CC4)cc3)cnc12 [Example 1-92, N-cyclopropyl-4-{6-[4-(dimethylamino)phenyl]-8-[(2-methylpropyl)amino]imidazo[1,2-a]pyrazin-3-yl}benzamide] | 7.6 nM
CC(C)CNc1nc(-c2ccc(F)cc2)cn2c(-c3ccc(C(=O)NC4CC4)c(Cl)c3)cnc12 [Example 1-93, 2-chloro-N-cyclopropyl-4-{6-(4-fluorophenyl)-8-[(2-methylpropyl)amino]imidazo[1,2-a]pyrazin-3-yl}benzamide] | 18 nM
CC(C)CNc1nc(-c2ccc(N(C)C)cc2)cn2c(-c3ccc(C(=O)NC4CC4)c(Cl)c3)cnc12 [Example 1-94, 2-chloro-N-cyclopropyl-4-{6-[4-(dimethylamino)phenyl]-8-[(2-methyl-propyl)amino]imidazo [1,2-a]pyrazin-3-yl} benzamide] | 19.8 nM
CC(C)CNc1nc(-c2ccccc2CO)cn2c(-c3ccc(C(=O)NC4CC4)c(Cl)c3)cnc12 [Example 1-95, 2-chloro-N-cyclopropyl-4-{6-[2-(hydroxymethyl)phenyl]-8-[(2-methyl-propyl)amino]imidazo [1,2-a]pyrazin-3-yl} benzamide] | 5.3 nM
CN(C)c1ccc(-c2cn3c(-c4ccc(C(=O)NC5CC5)c(Cl)c4)cnc3c(NCCC(F)(F)F)n2)cc1 [Example 1-96, 2-chloro-N-cyclopropyl-4-{6-[4-(dimethylamino)phenyl]-8-[(3,3,3-trifluoropropyl)amino]imidazo[1,2-a]pyrazin-3-yl}benzamide] | 22.6 nM
O=C(NC1CC1)c1ccc(-c2cnc3c(NCCC(F)(F)F)nc(-c4ccccc4CO)cn23)cc1Cl [Example 1-97, 2-chloro-N-cyclopropyl-4-{6-[2-(hydroxymethyl)phenyl]-8-[(3,3,3-trifluoropropyl)amino]imidazo[1,2-a]pyrazin-3-yl}benzamide] | 5.1 nM
CC(C)(O)CNc1nc(-c2ccc(F)cc2)cn2c(-c3ccc(C(=O)NC4CC4)c(Cl)c3)cnc12 [Example 1-98, 2-chloro-N-cyclopropyl-4-{6-(4-fluorophenyl)-8-[(2-hydroxy-2-methyl-propyl)amino]imidazo [1,2-a]pyrazin-3-yl} benzamide] | 12.9 nM
